Measured values published in patent EP0914370B1, “PROCESS FOR PRODUCING CLOSED CELL THERMOPLASTIC FOAMS CONTAINING HFC-134” (E.I. DU PONT DE NEMOURS AND COMPANY, priority 1996, dated 1998).
Marks after values point to notes of the source that are not given here.

Tests used:
[1] = Solubility and solution pressure of blowing agents in Quantum "Petrothene" grade low density polyethylene, same procedure; assay type: physicochemical
[2] = Solubility and solution pressure of blowing agents in polystyrene resin, calculated with the Flory-Huggins equation; assay type: physicochemical; conditions: for WT% Blowing Agent Dissolves in Resin: atmospheric pressure (14.7 psia, 1 bar)
Source text: Certain aspects of the invention are illustrated by the Figures. The accompanying figures illustrate the suitability of HFC-134 as blowing agent for producing polystyrenic foam bodies, the data presented therein were obtained with the aid of the well-known Flory-Huggins equation (Flory, P.J.: "Principles of Polymer Chemistry"; Cornell University Press, Ithaca, N.Y.), discussed below.
These equilibrium pressures relate to the point in the extrusion process where blowing agent is mixed with resin; foaming cannot occur at these pressures.
The data presented in Figures 3-6 were determined through use of the Flory-Huggins equation for phase equilibria in polymer solutions. This equation uses values for the following parameters [(1) - (4)], which were obtained as follows: (1) liquid densities of the blowing agents, g/cc, were derived by using standard methods, drawing a straight line through the liquid density data (based on National Institute of Standards and Technology, NIST, experimental data; with equations based on the Modified Benedict-Webb-Rubin, MBWR, equation of state) from -50°C to 50°C and calculating the liquid density as a function of temperature. The density (d) equation recites: d=AT+B, wherein A is the slope of the line, B is the constant of the line, and T temperature (°C). The liquid densities are (grams/cubic centimeter, g/cm^3):
(2) The densities of the superheated vapors of the blowing agents, which are tabulated below, were calculated from the known vapor data of their thermodynamic properties (based on National Institute of Standards and Technology, NIST, experimental data; with equations based on the Modified Benedict-Webb-Rubin, MBWR, equation of state).
(3) The activity coefficients for the blowing agents that are tabulated below:
These coefficients were determined by dividing the experimental blowing agent partial pressure by the saturated vapor pressure at that temperature. (4) The interaction parameters, X1, were determined at four temperatures, and are presented graphically as a function of temperature in Figure 2 by means of the following equation and equation constants: X1 = A/T + B [formula] (where T = °K = °C + 273.2)
Such data are presented graphically in Figures 3, 4, 5 and 6. Figures 3-6 are plots of "weight% Blowing Agent Dissolved in Resin vs. Pressure of Solution" as a function of temperature. Representative solubilities of the blowing agents in the given resin at various extrusion process temperatures at atmospheric pressure (14.7 psia, 1 bar), are listed below in Table 1: Table 1

[3] = low density polyethylene, 25°C, 1 Atm
[4] = low density polyethylene, 180°C, 1 Atm
[5] = low density polyethylene, Extruder Temp 180°C
[6] = polystyrene resin, 25°C (footnote *)

Row | Structure (SMILES) | Solubility (wt % HFC) at 1 Atm of HFC Pres. 25°C [1, 3] [wt % HFC] | Solubility (wt % HFC) at 1 Atm of HFC Pres. Ext Temp [1, 4] [wt % HFC] | Limiting Solubility (wt % HFC) [1, 5] [wt % HFC] | Limiting Solubility (wt % HFC) [2] [wt % HFC] | Solubility (wt % HFC) at 1 Atm of HFC Pres. 25°C [2] [wt % HFC] | Solubility (wt % HFC) at 1 Atm of HFC Pres. Ext Temp [2] [wt % HFC] | WT% Blowing Agent Dissolves in Resin ([2]; polystyrene resin, 20°C) [WT%] | WT% Blowing Agent Dissolves in Resin ([2]; polystyrene resin, 60°C) [WT%] | WT% Blowing Agent Dissolves in Resin ([2]; polystyrene resin, 100°C) [WT%] | WT% Blowing Agent Dissolves in Resin ([2]; polystyrene resin, 140°C) [WT%] | WT% Blowing Agent Dissolves in Resin ([2]; polystyrene resin, 180°C) [WT%] | WT% Blowing Agent Dissolves in Resin ([2]; polystyrene resin, 200°C) [WT%] | WT% Blowing Agent Dissolves in Resin [2, 6] | Solubility (wt % HFC) at 1 Atm of HFC Pres. 25°C ([2]; polystyrene resin, 25°C, 1 Atm) [wt % HFC] | Solubility (wt % HFC) at 1 Atm of HFC Pres. Ext Temp ([2]; polystyrene resin, 180°C, 1 Atm) [wt % HFC] | Limiting Solubility (wt % HFC) ([2]; polystyrene resin, Extruder Temp 180°C) | HFC-134/HFC-134a solubility ratio [2] | Limiting Solubility (wt % HFC) [1] [wt % HFC] | Solubility (wt % HFC) at 1 Atm of HFC Pres. 25°C [1] [wt % HFC] | Solubility (wt % HFC) at 1 Atm of HFC Pres. Ext Temp [1] [wt % HFC]
1 | FC(F)(Cl)C(F)(F)Cl [HCFC-114, 1,2-dichloro-1,1,2,2-tetrafluoroethane] | 2.01 | 0.38 | 78 |  |  |  |  |  |  |  |  |  |  |  |  |  |  |  |  | 
2 | CC(F)F [HFC-152a, 1,1-difluoroethane] |  |  |  | 83 | 0.76 | 0.2 | 0.8 | 0.5 | 0.4 | 0.3 | 0.2 | 0.15 |  |  |  |  |  |  |  | 
3 | FCC(F)(F)F [HFC-134a, 1,1,1,2-tetrafluoroethane] | 0.22 | 0.14 | 74 |  |  |  |  | 0.2 | 0.19 | 0.15 | 0.1 | 0.08 | 0.16* WT% | 0.16 | 0.11 | 69 |  |  |  | 
4 | CC(F)(F)F [HFC-143a, 1,1,1-trifluoroethane] |  |  |  | 69 | 0.04 | 0.07 | 0.04 | 0.08 | 0.13 | 0.1 | 0.07 | 0.05 |  |  |  |  |  |  |  | 
5 | CCF [HFC-161, 1-fluoroethane] | 0.22 | 0.24 | 89 |  |  |  |  |  |  |  |  |  |  |  |  |  |  |  |  | 
6 | FC(F)C(F)F [HFC-134, 1,1,2,2-tetrafluoroethane] |  |  |  | 81 | 0.54 | 0.2 |  | 0.5 | 0.4 | 0.3 | 0.2 | 0.15 | 0.6* WT% |  |  |  | about 2/1 | 81 | 0.64 | 0.20
